Consider 17 compounds from ChEMBL document CHEMBL5512603, “Development of de-novo coronavirus 3-chymotrypsin-like protease (3CLpro) inhibitors since COVID-19 outbreak: A strategy to tackle challenges of persistent virus infection” (Eur J Med Chem, 2024).

SMILES strings stand for the structures.

Data set [1] has as its target T1, Replicase polyprotein 1ab (Severe acute respiratory syndrome coronavirus 2, UniProt P0DTD1). Put plainly: Inhibition of recombinant SARS-CoV2 6xHis-tag-Main protease containing modified HRV-3C expressed in Escherichia coli using Mca-AVLQSGFR-K(Dnp)K peptide substrate assessed as fluorescent intensity.
Data set [2] can be described thus: Half life in rat. The format is ADME. The following applies: in vivo.
In data set [3] the test system is SARS-CoV-2. Nature of the data set: Anti-viral activity against SARS-CoV-2 infected in K18-hACE2 mouse assessed as reduction in virus in lung at 100 mg/kg, ip twice daily measured after day 3. The class given is functional. Conditions: Severe acute respiratory syndrome coronavirus 2, 72 h, time 3 day.
For data set [4], the system named is SARS-CoV-2. Put plainly: Antiviral activity against SARS-CoV-2 infected in African green monkey Vero cells. The class given is functional, organism-based. Conditions: Severe acute respiratory syndrome coronavirus 2, Vero.
The subject of data set [5] is SARS-CoV-2. Nature of the data set: Antiviral activity against SARS-CoV-2 Canada/Vido 01/2020 infected in African green monkey Vero E6 cells assessed as inhibition of viral replication incubated for 48 hrs by plaque reduction assay. The format is functional, organism-based. Conditions: Severe acute respiratory syndrome coronavirus 2, Canada/Vido 01/2020, Vero C1008, 48 h. (In general: Plaque reduction counts the foci of infection that form in a cell layer.)

Data set [6] deals with T1, Replicase polyprotein 1ab. Nature of the data set: Inhibition of recombinant SARS-CoV-2 3CLp using fluorogenic substrate by microplate reader.
A short description of data set [7]: Oral bioavailability in Sprague-Dawley rat at 10 mg/kg. The class given is ADME, organism-based. Conditions: in vivo.
The test system of data set [8] is SARS-CoV-2. Put plainly: Antiviral activity against wild type SARS-CoV-2 infected in African green monkey Vero E6 cells assessed as inhibition of virus induced cytopathic effect by MTT assay. Conditions: Severe acute respiratory syndrome coronavirus 2, Vero C1008. The class given is functional, organism-based.
For data set [9], the system named is SARS-CoV-2. Put plainly: Antiviral activity against SARS-CoV-2 Alpha infected in African green monkey Vero E6 cells assessed as inhibition of virus induced cytopathic effect by MTT assay. The class given is functional, organism-based. The following applies: Severe acute respiratory syndrome coronavirus 2, Alpha, Vero C1008. Background: Protection from cytopathic effect is a common read-out in antiviral testing.

The test system of data set [10] is SARS-CoV-2. Put plainly: Antiviral activity against SARS-CoV-2 Beta infected in African green monkey Vero E6 cells assessed as inhibition of virus induced cytopathic effect by MTT assay. The format is functional, organism-based. Conditions: Severe acute respiratory syndrome coronavirus 2, Beta, Vero C1008.
For data set [11], the system named is SARS-CoV-2. Nature of the data set: Antiviral activity against SARS-CoV-2 Delta infected in African green monkey Vero E6 cells assessed as inhibition of virus induced cytopathic effect by MTT assay. The format is functional, organism-based. The following applies: Severe acute respiratory syndrome coronavirus 2, Delta, Vero C1008.
The test system of data set [12] is SARS-CoV-2. Put plainly: Antiviral activity against SARS-CoV-2 Omicron BA.1 infected in African green monkey Vero E6 cells assessed as inhibition of virus induced cytopathic effect by MTT assay. The class given is functional, organism-based. The following applies: Severe acute respiratory syndrome coronavirus 2, Omicron BA.1, Vero C1008.
Data set [13] concerns SARS-CoV-2. Put plainly: Antiviral activity against SARS-CoV-2 Omicron BA.5 infected in African green monkey Vero E6 cells assessed as inhibition of virus induced cytopathic effect by MTT assay. The format is functional, organism-based. Conditions: Severe acute respiratory syndrome coronavirus 2, Omicron BA.5, Vero C1008.
Data set [14] in a line: Cmax in cynomolgus monkey at 5 mg/kg, po. The class given is ADME, organism-based, Macaca fascicularis. Conditions: in vivo.
The nature of data set [15]: Tmax in cynomolgus monkey at 5 mg/kg, po. The format is ADME, organism-based, Macaca fascicularis. Conditions: in vivo.
Data set [16] is described as follows: AUC (0 to last) in cynomolgus monkey at 5 mg/kg, po. The class given is ADME, organism-based, Macaca fascicularis. Conditions: in vivo.
Data set [17] is described as follows: Half life in cynomolgus monkey at 5 mg/kg, po. The format is ADME, organism-based, Macaca fascicularis. The following applies: in vivo.
Data set [18] addresses T1, Replicase polyprotein 1ab. Nature of the data set: Inhibition of SARS-CoV-2 recombinant 3CLpro using fluorogenic substrate (Dabcyl-KTSAVLQ]SGFRK M-E.
In data set [19] the target is T1, Replicase polyprotein 1ab. Nature of the data set: Inhibition of SARS-CoV-2 3CLp using fluorescent substrate by FRET assay.
The test system of data set [20] is SARS-CoV-2. Put plainly: Antiviral activity against SARS-CoV-2 infected in African green monkey Vero E6 cells at 0.1 MOI assessed as inhibition of virus induced cytopathic effect by CCK8 assay. The class given is functional, organism-based. Conditions: Severe acute respiratory syndrome coronavirus 2, Vero C1008.
Data set [21] concerns SARS-CoV-2. Nature of the data set: Antiviral activity against SARS-CoV-2 infected in Caco-2-ACE2 assessed as inhibition of viral replication. The class given is functional, organism-based. Conditions: Severe acute respiratory syndrome coronavirus 2, Caco-2-ACE2.
In data set [22] the target is Protein cereblon/Replicase polyprotein 1ab (Severe acute respiratory syndrome coronavirus 2, UniProt P0DTD1+Q96SW2). Nature of the data set: PROTAC activity at SARS-CoV-2 Main protease/CRBN (unknown origin) in SARS-CoV-2 infected african green monkey Vero cell assessed as inhibition of virus-mediated cytopathic effect measured after 72 hrs. The format is cell-based.

Data set [23] has as its system SARS-CoV-2. Nature of the data set: Antiviral activity against wild type SARS-CoV-2 infected in human Calu-3 cells. The following applies: Severe acute respiratory syndrome coronavirus 2, Calu-3. The format is functional, organism-based.
The target in data set [24] is von Hippel-Lindau disease tumor suppressor-SARS-Cov-2 polyprotein (Severe acute respiratory syndrome coronavirus 2, UniProt P0DTD1+P40337). Put plainly: PROTAC activity at SARS-CoV-2 Main protease/VHL (unknown origin) in SARS-CoV-2 infected african green monkey Vero cell assessed as inhibition of virus-mediated cytopathic effect measured after 72 hrs. The class given is cell-based.

The nature of data set [25]: Oral bioavailability in Sprague-Dawley rat at 20 mg/kg. The class given is ADME, organism-based. The following applies: in vivo.
In data set [26] the test system is SARS-CoV-2. Nature of the data set: Antiviral activity against SARS-CoV-2 infected in HAPEpIC cells at 0.01 MOI assessed as reduction in viral RNA copies by RT-qPCR analysis. The format is functional, organism-based. Conditions: Severe acute respiratory syndrome coronavirus 2.
The nature of data set [27]: Bioavailability in Sprague-Dawley rat at 20 mg/kg, ip. The format is ADME, organism-based. The following applies: in vivo.

Chain of Protein cereblon/Replicase polyprotein 1ab (Q96SW2 whole entry, other chains not shown): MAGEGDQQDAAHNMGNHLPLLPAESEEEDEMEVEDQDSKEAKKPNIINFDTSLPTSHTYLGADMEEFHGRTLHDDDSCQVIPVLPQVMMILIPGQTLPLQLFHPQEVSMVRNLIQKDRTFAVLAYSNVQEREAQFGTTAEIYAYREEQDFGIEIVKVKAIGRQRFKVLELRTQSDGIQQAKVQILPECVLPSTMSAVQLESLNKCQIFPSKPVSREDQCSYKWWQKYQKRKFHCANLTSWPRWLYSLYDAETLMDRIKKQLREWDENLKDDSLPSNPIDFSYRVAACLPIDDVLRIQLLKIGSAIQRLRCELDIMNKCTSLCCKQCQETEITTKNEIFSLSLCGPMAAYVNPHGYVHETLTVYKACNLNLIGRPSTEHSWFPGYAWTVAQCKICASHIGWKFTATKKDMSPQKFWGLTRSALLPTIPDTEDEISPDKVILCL
Chain of von Hippel-Lindau disease tumor suppressor-SARS-Cov-2 polyprotein (P40337 whole entry, other chains not shown): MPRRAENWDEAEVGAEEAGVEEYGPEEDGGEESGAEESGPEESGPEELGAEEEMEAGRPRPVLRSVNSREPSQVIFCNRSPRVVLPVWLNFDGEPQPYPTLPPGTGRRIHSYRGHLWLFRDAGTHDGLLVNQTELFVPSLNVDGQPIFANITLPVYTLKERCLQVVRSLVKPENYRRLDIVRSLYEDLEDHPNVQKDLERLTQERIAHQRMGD

Usually IC50 stands for the concentration needed to halve the response being measured. Take `COC(=O)Cn1sc2ccccc2c1=O`: the IC50 in [1] came to 2.83 µM.

By half-life is commonly meant the time in which the quantity being followed falls by half. The term inhibition in vivo denotes the share of the control response that was lost under treatment. Take `O=C[C@H](C[C@@H]1CCNC1=O)NC(=O)[C@H](CC1CCCCC1)NC(=O)c1cc2ccccc2[nH]1`: the half-life in data set [2] was > 4 h. Also, in the data set with SARS-CoV-2 [3], the inhibition in vivo at 100 mg/kg worked out at 100%.

The term EC50 denotes the concentration that produces a half-maximal response. In the data set with SARS-CoV-2 [4], `C[C@H](NC(=O)[C@@H](c1cccnc1)N(C(=O)C(Cl)Cl)c1ccc(-c2ccccc2)cc1)c1ccccc1` yielded an EC50 of 0.9 µM.

On to `COc1cccc2[nH]c(C(=O)N[C@@H](CC(C)C)C(=O)N[C@H](C#N)C[C@@H]3CCNC3=O)cc12`, for which the EC50 in the data set on SARS-CoV-2 [5] is > 5 µM.

Broadly, the bioavailability is the share of a dose that reaches the circulation, judged against a reference dose that is usually intravenous. For the compound `O=C[C@H](C[C@@H]1CCNC1=O)NC(=O)[C@@H]1[C@H]2CCC[C@H]2CN1C(=O)COc1ccc(Cl)c(Cl)c1`, the IC50 in data set [6] is 0.019 µM. Moreover, the bioavailability in [7] was 5.1%.

For `O=C[C@H](C[C@@H]1CCNC1=O)NC(=O)[C@@H]1[C@H]2CCC[C@H]2CN1C(=O)COc1ccc(Cl)cc1`, the IC50 in [6] amounted to 0.009 µM. Besides, the bioavailability in [7] worked out at 7.2%.

As to `CC1(C)[C@@H]2[C@@H](C(=O)N[C@H](C=O)C[C@@H]3CCNC3=O)N(C(=O)COc3ccc(Cl)cc3)C[C@@H]21`, in data set [6], the IC50 came out at 0.009 µM. The same compound displayed a bioavailability in data set [7] of 4.8%.

Turning to `CC1(C)[C@@H]2[C@@H](C(=O)N[C@H](C=O)C[C@@H]3CCNC3=O)N(C(=O)COc3ccc(Cl)cc3Cl)C[C@@H]21`, in data set [6], the IC50 was 0.01 µM. In data set [7], the bioavailability was 4.1%.

In the data set on SARS-CoV-2 [4], `C[C@H](NC(=O)[C@@H](c1cccnc1)N(C(=O)C(Br)(Br)Br)c1ccc(-c2ccccc2)cc1)c1ccccc1` gave an EC50 of 0.58 µM.

For orientation: Cmax means the maximum level reached in the sampled fluid or tissue. As a reminder, the Tmax is the time at which the peak concentration occurs. Broadly, the AUC(0-t) is the area under the concentration-time curve up to a stated or last time point. As to `O=C(NC1CCCC1)C(=O)[C@H](C[C@@H]1CCNC1=O)NC(=O)[C@@H]1[C@H]2CCC[C@H]2CN1C(=O)[C@@H](NC(=O)C(F)(F)F)C1CCCCC1`, the EC50 in the data set on SARS-CoV-2 [8] was 0.095 µM; with SARS-CoV-2 [9], 0.13 µM; with SARS-CoV-2 [10], 0.277 µM; in the data set on SARS-CoV-2 [11], 0.097 µM; in the data set with SARS-CoV-2 [12] it was 0.086 µM; with SARS-CoV-2 [13], 0.13 µM. The same compound returned a Cmax in [14] of 102 nM. Further, in data set [15], the Tmax was found to be 1.5 h. Further, the AUC(0-t) in data set [16] was 0.458 µM·h. The half-life in data set [17] was 14.9 h.

On to `CNC(=O)c1cc(Br)cc([N+](=O)[O-])c1N[C@H]1CCCC[C@H]1NC(=O)c1cncc2cc(O)ccc12`, for which the IC50 in data set [18] turned out to be 120 µM.

`O=C[C@@H](C[C@H]1CCNC1=O)NC(=O)[C@H]1[C@@H]2CCC[C@@H]2CN1C(=O)OCc1ccccc1`: the IC50 in data set [19] came to 0.051 µM. Moreover, the EC50 with SARS-CoV-2 [20] was found to be 2.56 µM; with SARS-CoV-2 [21], 5.24 µM.

On to `Cc1c(COC(=O)N[C@@H](CC(C)C)C(=O)N[C@@H](C[C@@H]2CCNC2=O)C(O)S(=O)(=O)O)nnn1CCOCCOCCOCCC(=O)Nc1cccc2c1C(=O)N(C1CCC(=O)NC1=O)C2=O` (stereo partly specified), for which, in data set [22], the EC50 was 2.15 µM.

`COc1ccc(/C=C(\C#N)C(=O)N(c2ccc(-c3ccccc3)cc2)[C@@H](C(=O)N[C@@H](C)c2ccccc2)c2cccnc2)cc1`: the EC50 with SARS-CoV-2 [23] was found to be 6.47 µM.

On to `Cc1ncsc1-c1ccc(CNC(=O)[C@@H]2C[C@@H](O)CC2C(=O)[C@@H](NC(=O)CCC(=O)NCCOCCn2nnc(COC(=O)N[C@@H](CC(C)C)C(=O)N[C@@H](C[C@@H]3CCNC3=O)C(O)S(=O)(=O)O)c2C)C(C)(C)C)cc1` (stereo partly specified), for which the EC50 in [24] was 10.1 µM.

For `CNC(=O)[C@@H](Cc1cccc(F)c1)NC(=O)C1CN(C(=O)c2cncc3cccc(O)c23)CCN1Cc1ccc(Cl)cc1Cl` (stereo partly specified), the IC50 in [18] is 165 µM.

As for `CC1(C)[C@@H]2[C@H]1CN(C(=O)COc1ccc(OC(F)(F)F)cc1)[C@H]2C(=O)N[C@@H](C=O)C[C@H]1CCNC1=O`, the bioavailability in [25] was determined as 11.2%; in data set [27], 78%. For the same compound, the EC50 with SARS-CoV-2 [20] came out at 0.86 µM; with SARS-CoV-2 [26] it was 0.0012 µM.
